Source: article PMC12084062, “Integrating in vitro and in silico approaches for exploring antidiabetic potential of dimethyl and thiomethyl indolinone derivatives” (PLOS One, 2025)
Values after ≈ are worked out from the molar mass of the structure shown. Values joined by “and” are separate entries in the source; they are usually repeats but may differ in a detail not shown here. Equal values may be shown once. Values belong to the molecule of their own block, whether it stands above or below them.

Tests used:
Assay type in all cases: biochemical
[1] = biological target: human recombinant DPP-IV enzyme (Homo sapiens, UniProt P27487); experiment: DPP-IV inhibition assay; details: in vitro; read-out: IC50 against DPP-IV (converted)
Experimental: The assay was carried out according to the established method with slight modification. Various concentrations of the synthesized compounds were added to human recombinant DPP-IV enzyme solution in respective wells of a 96-well plate. After incubation, pNA substrate (Gly-Pro-pNA) dissolved in Tris buffer was added to initiate the reaction and further incubated. After incubation, acetic acid solution was added to stop the reaction and the absorbance was recorded. The percentage inhibition was calculated by using the following equation:
Percentinhibition=1−(absorbanceofthetestwell/absorbanceoftheuntreatedcontrol)x100

protein glycation = experiment: Protein glycation assay; details: in vitro
Experimental: Briefly, 50 µl of protein solution in distil water was added to 10 µl of glyceraldehyde solution in black microplates. The plates were sealed and incubated at 37 °C for 24 h. After incubation, test compound solutions were then added. Blank containing distilled water served as a negative control (untreated), while Rutin as a positive control. The fluorescence was measured at 370 nm (excitation), and 440 nm (emission). The percentage inhibition was calculated using the following formula:
Percentinhibition=1−fluorescenceoftestwell/fluoresecenceofnegativecontrolx100

α-amylase = experiment: In vitro α-amylase inhibition; details: for maximum inhibition of α-amylase: at 1000 μg/mL; for IC50 against α-amylase: in vitro
Experimental: The standard protocol of in vitro α-amylase inhibition was performed according to Naeem et al. 70 µL of a 50 mM phosphate buffer (pH 6.0) were combined with 100 µL of the reaction solution. […] (0.057 units) of an enzyme, and 50 µL of the compound being examined was added to the solution. After being thoroughly blended, a 10-minute pre-incubation at 25 °C was carried out. The absorbance of the resulting mixture was measured at a wavelength of 400 nm. Further, a solution equal to 10 µL a 0.5 mM concentration of p-nitrophenyl glucopyranoside was added to the solution, and re-incubation carried out at a 25 °C temperature. The absorbance of the solution was measured at a wavelength of 400 nm after incubation.

Compound: Cc1ccc(/C=C2/C(=O)Nc3cc(Cl)ccc32)c(C)c1 [Compound 1, (E)-3-(2,4-Dimethylbenzylidene)-6-chloroindolin-2-one]
IC50 [1]: 110 µM | IC50 against protein glycation (protein glycation): 210.592 µg/mL (≈ 742 µM) | maximum inhibition of α-amylase (α-amylase): 80% | IC50 against α-amylase (α-amylase): 32.917 µg/mL (≈ 116 µM)

Compound: CSc1ccc(/C=C2/C(=O)Nc3cc(Cl)ccc32)cc1 [Compound 2, (E)-3-(4-(Methylthio)benzylidene)-6-chloroindolin-2-one]
IC50 [1]: 156 µM | IC50 against protein glycation (protein glycation): 341.551 µg/mL (≈ 1130 µM) | maximum inhibition of α-amylase (α-amylase): 75% | IC50 against α-amylase (α-amylase): 42.691 µg/mL and 42.69 µg/mL

IC50 against protein glycation (protein glycation): 20.780 µg/mL (≈ 34 µM)
Compound: C[C@@H]1O[C@@H](OC[C@H]2O[C@@H](Oc3c(-c4ccc(O)c(O)c4)oc4cc(O)cc(O)c4c3=O)[C@H](O)[C@@H](O)[C@@H]2O)[C@H](O)[C@H](O)[C@H]1O [Rutin, reference compound]
